Experimental data as given in publication PMC8147275, “Design, Synthesis, and Molecular Docking Study of New Tyrosyl-DNA Phosphodiesterase 1 (TDP1) Inhibitors Combining Resin Acids and Adamantane Moieties” (Pharmaceuticals, 2021).
Entries after “also recorded” stand apart in the source; their conditions may differ. Where two headings read alike, the source gives them in different places.

Assays:
TDP1 [1] = biological target: T1, TDP1 (Homo sapiens, UniProt Q9NUW8); settings: Figure 2, known inhibitor; cited from earlier work
T1 construct: inferred from the pET 16B vector and purification on Ni-chelating resin; made in house
T1 sequence (Q9NUW8 whole entry): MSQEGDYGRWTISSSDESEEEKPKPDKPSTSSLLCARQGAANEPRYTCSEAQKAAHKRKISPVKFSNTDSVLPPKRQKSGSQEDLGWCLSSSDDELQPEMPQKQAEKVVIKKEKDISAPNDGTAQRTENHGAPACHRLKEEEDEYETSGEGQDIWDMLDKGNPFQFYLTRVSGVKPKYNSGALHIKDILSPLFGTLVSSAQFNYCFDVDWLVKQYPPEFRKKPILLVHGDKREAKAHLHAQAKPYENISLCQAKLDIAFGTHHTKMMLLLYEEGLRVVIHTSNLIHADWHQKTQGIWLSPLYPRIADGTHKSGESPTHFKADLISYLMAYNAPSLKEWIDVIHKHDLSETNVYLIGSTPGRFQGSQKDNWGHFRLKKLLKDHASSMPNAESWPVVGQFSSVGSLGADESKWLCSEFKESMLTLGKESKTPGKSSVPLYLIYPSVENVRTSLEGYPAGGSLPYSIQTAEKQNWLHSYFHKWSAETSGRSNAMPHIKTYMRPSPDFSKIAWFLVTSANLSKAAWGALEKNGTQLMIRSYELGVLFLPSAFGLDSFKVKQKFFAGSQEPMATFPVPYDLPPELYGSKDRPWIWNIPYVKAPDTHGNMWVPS

TDP1 [2] = biological target: T1, TDP1; assay: TDP1 assay: recombinant TDP1 with fluorescent biosensor (FAM/BHQ1), cell-free; assay type: biochemical; settings: recombinant TDP1 1.5 nM, biosensor 50 nM, 26 °C
Protocol: The primary screening of the inhibitory activities against TDP1 was performed using an in vitro cell-free system involving the recombinant TDP1 and a fluorescent reporter probe as previously described.
The recombinant TDP1 was purified to homogeneity by chromatography on Ni-chelating resin and phosphocellulose P11 as previously described, using plasmid pET 16B-TDP1, kindly provided by Dr. K.W. Caldecott (University of Sussex, United Kingdom). The TDP1 activity measurements were carried out as described. Briefly, TDP1-biosensor with fluorofore (FAM) at the 5′-end and a fluorescence quencher (BHQ1) at the 3′-end at a final concentration of 50 nM were incubated in a 200 μL volume that contained TDP1 buffer (50 mM Tris-HCl pH 8.0, 50 mM NaCl, and 7 mM β-mercaptoethanol) supplemented with purified 1.5 nM TDP1 and various concentrations of inhibitor. Fluorescence measurements (Ex485/Em520 nm) were carried out during the linear phase of the reaction (from 0 to 8 min for TDP1) every 55 sec. The reactions were incubated at a constant temperature of 26 °C in a POLARstar OPTIMA fluorimeter (BMG LABTECH, GmbH). The influence of compounds was evaluated by comparing the fluorescence increase rate in the presence of compounds with that of DMSO control wells. The data were imported into the MARS Data Analysis 2.0 program (BMG LABTECH), and the IC50 values (the concentration of a compound required to reduce the enzyme activity by 50%) were calculated.

T98G glioma cells = assay: Cytotoxicity (MTT) alone and in combination with temozolomide; assay type: cell-based
Protocol: (§1) Since we used the T98G glioblastoma cell line for the first time for our experiments, we first attempted to perform the cytotoxicity study in a range of concentrations from 10 to 100 µM, as we did previously with the TDP1 inhibitory compounds when working with the other cell lines. However, the cytotoxicity at 50 and 100 µM of our compounds turned out to be rather high in the T98G cell line. We then measured the cytotoxicity of individual TDP1 inhibitors at 2.5, 5, 10, and 25 µM. The studied compounds were prepared as 50 mM stock solutions in DMSO and added to T98G glioma cells at 2.5 µM to 25 µM concentrations, either individually or in combination with 1000 or 2000 µM of TMZ. […] They were therefore discarded from the later cytotoxicity studies.
Individual TDP1 inhibitors were prepared as 50 mM stock solutions in DMSO and were added to the cells at 2.5, 5, 10, or 25 μM. Temozolomide was prepared as 200 mM stock solution in DMSO and was added at 1 mM or 2 mM concentrations, either alone or in combination with TDP1 inhibitors. T98G and SNB19 glioma cells were maintained in DMem/F12 medium supplemented with 10% foetal bovine serum, l-glutamine, and penicillin/streptomycin and were split at 10,000 cells/well into the 96-well plates for cytotoxicity experiments. The drugs or drug combinations were incubated with cells for 72 h, then the MTT reagent (3-(4,5-dimethylthiazol-2-yl)-2,5-diphenyltetrazolium bromide) was added for 4 h. The produced purple formazan dye reporting the activity of cellular oxireductases was dissolved overnight in 10% solution of acidified SDS and the absorbance was measured using a Tecan plate reader. Each concentration of individual substance or each drug combination was tested in triplicate. The data obtained were processed using MS Excel software and presented as histogram plots.

[3] = Solubility observations (stock solutions, solvents, cell growth medium); assay type: physicochemical; settings: light microscopy
Protocol: as §1

Row | SMILES | IC50 (TDP1 [2]) [nM] | further results
1 | CC(=O)C1=C(O)C=C2Oc3c(-c4csc(N/N=C/CC(C)CCC=C(C)C)n4)c(O)c(C)c(O)c3[C@@]2(C)C1=O (stereo partly shown) [A] | – | IC50 (TDP1 [1]): 10.3 ± 0.4 nM
2 | CC(C)=CCC/C(C)=C/COc1ccc2c(-c3ccc(F)cc3)cc(=O)oc2c1 [C] | – | IC50 (TDP1 [1]): 500 nM
3 | CC(C)c1ccc2c(c1)CC[C@H]1[C@](C)(CNC(=O)NC34CC5CC(CC(C5)C3)C4)CCC[C@]21C [Compound 1, N-abieta-8,11,13-trien-18-yl-N’-1-adamantylurea] | 190 ± 30 | –
4 | CC(C)c1ccc2c(c1)CC[C@H]1[C@](C)(CNC(=O)NC3C4CC5CC(C4)CC3C5)CCC[C@]21C (stereo partly shown) [Compound 2, N-abieta-8,11,13-trien-18-yl-N’-2-adamantylurea] | 800 ± 200 | melting point: 150 °C; sensitization of glioma T98G cells to TMZ (T98G glioma cells; combination with TMZ): most effective
5 | CC(C)c1ccc2c(c1)CC[C@H]1[C@](C)(CNC(=S)NC34CC5CC(CC(C5)C3)C4)CCC[C@]21C [Compound 3, N-abieta-8,11,13-trien-18-yl-N’-1-adamantylthiourea] | 1500 ± 500 | –
6 | CC(C)c1ccc2c(c1)CC[C@H]1[C@](C)(CNC(=S)NC3C4CC5CC(C4)CC3C5)CCC[C@]21C (stereo partly shown) [Compound 4, N-abieta-8,11,13-trien-18-yl-N’-2-adamantylthiourea] | 670 ± 190 | –
7 | CC(C)c1ccc2c(c1)CC[C@H]1[C@](C)(CNC(N)=O)CCC[C@]21C [Compound 5, N-abieta-8,11,13-trien-18-ylurea] | > 15000 | IC50 (TDP1) (TDP1 [2]): no activity; also recorded: failed to inhibit TDP1
8 | CC(C)CCCC(C)CCOC(=O)C12CC3CC(CC(C3)C1)C2 (stereo not shown) [E] | – | IC50 (TDP1 [1]): 920 nM
9 | Cn1nnc2c(C(N)=O)ncn2c1=O [TMZ, temozolomide] | – | cells surviving the treatment (T98G glioma cells; TMZ alone 1000 µM, 72 h, MTT): ~ 95%; inhibition of cell viability (T98G glioma cells; TMZ alone 2000 µM, 72 h, MTT): ~ 40%

More lines, main results first:

Row | IC50 (TDP1 [2]) [nM] | SMILES | further results
10 | 940 ± 180 | CC(C)c1ccc2c(c1)CC[C@H]1[C@](C)(CNC(=O)C34CC5CC(CC(C5)C3)C4)CCC[C@]21C [Compound 6, N-abieta-8,11,13-trien-18-yladamantan-1-carboxamide] | –
11 | 1800 ± 400 | CC(C)c1ccc2c(c1)CC[C@H]1[C@](C)(CNC(=O)C3C4CC5CC(C4)CC3C5)CCC[C@]21C (stereo partly shown) [Compound 7, N-abieta-8,11,13-trien-18-yladamantan-2-carboxamide] | behaviour of stock solution dissolved in cell growth medium [3]: formed visible micelles
12 | 2300 ± 800 | CC(C)c1ccc2c(c1)CC[C@H]1[C@](C)(CNC(=S)C34CC5CC(CC(C5)C3)C4)CCC[C@]21C [Compound 8, N-abieta-8,11,13-trien-18-yladamantan-1-carbothioamide] | behaviour of stock solution dissolved in cell growth medium [3]: formed visible micelles
13 | 570 ± 160 | CC(C)c1ccc2c(c1)CC[C@H]1[C@](C)(NC(=O)NC34CC5CC(CC(C5)C3)C4)CCC[C@]21C [Compound 9, N-1-adamantyl-N’-[(1R,4aS,10aR)-7-isopropyl-1,4a-dimethyl-1,2,3,4,4a,9,10,10a-octahydrophenanthren-1-yl]urea] | –
14 | 590 ± 150 | CC(C)c1ccc2c(c1)CC[C@H]1[C@](C)(NC(=O)NC3C4CC5CC(C4)CC3C5)CCC[C@]21C (stereo partly drawn) [Compound 10, N-2-adamantyl-N’-[(1R,4aS,10aR)-7-isopropyl-1,4a-dimethyl-1,2,3,4,4a,9,10,10a-octahydrophenanthren-1-yl]urea] | –
15 | 1700 ± 600 | CC(C)C1=CC2=CC[C@H]3[C@](C)(NC(=O)NC45CC6CC(CC(C6)C4)C5)CCC[C@]3(C)C2CC1 (stereo partly drawn) [Compound 11, N-1-adamantyl-N’-[(1R,4aR,10aR)-7-isopropyl-1,4a-dimethyl-1,2,3,4,4a,4b,5,6,10,10a-decahydrophenanthren-1-yl]urea] | –
16 | 1400 ± 300 | CC(C)C1=CC2=CC[C@H]3[C@](C)(NC(=O)NC4C5CC6CC(C5)CC4C6)CCC[C@]3(C)C2CC1 (stereo partly drawn) [Compound 12, N-2-adamantyl-N’-[(1R,4aR,10aR)-7-isopropyl-1,4a-dimethyl-1,2,3,4,4a,4b,5,6,10,10a-decahydrophenanthren-1-yl]urea] | –
